Columns and labels:
[1] = tested on: Sphaerotheca fuliginea; assay: Example B: in vivo preventive test on Sphaerotheca fuliginea (powdery mildew on cucurbits), gherkin plants; details: 500 ppm of active ingredient, grading 12 days after contamination
Procedure, shortened: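 Gherkin plants grown at 24 °C were sprayed with compound at the Z11 cotyledon stage; controls received acetone/tween/DMSO/water without active. 24 h later, cotyledons were inoculated by spraying with Sphaerotheca fuliginea spores (100 000 spores per mL).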

[2] = tested on: Septoria tritici; assay: Example I: in vivo preventive test on Septoria tritici (wheat), acetone/tween/DMSO preparation; details: 500 ppm of active ingredient, grading 24 days after contamination
Procedure, shortened: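 Scipion wheat grown at 22° C, sprayed at 1-leaf stage (10 cm); controls received acetone/tween/DMSO/water without active. Inoculated 24 h later with S. tritici spores (500 000/mL), held 72 h at 18° C, 100% RH, then 21 days at 90% RH. % efficacy vs controls scored 24 days post-inoculation.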

[3] = tested on: Alternaria brassicae; assay: Example D: in vivo preventive test on Alternaria brassicae (leaf spot on radish); details: 500 ppm of active ingredient, grading 6 days after contamination
Procedure, shortened: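 Radish plants at cotyledon stage were sprayed with compound; controls got the acetone/tween/DMSO/water mix alone. After 24 h they were inoculated with Alternaria brassicae spores (50 000 spores per mL) and kept at 20 °C, 100% relative humidity. % efficacy versus controls was graded 6 days post-inoculation.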

[4] = tested on: Puccinia recondita; assay: Example M: in vivo preventive test on Puccinia recondita (brown rust on wheat); details: 500 ppm of active ingredient, grading 12 days after contamination
Procedure, shortened: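 Wheat (Scipion) sprayed with compound at 1-leaf stage, grown at 22° C. Inoculated 24 h later with a spore suspension at 100 000 spores per mL. Efficacy (%) graded 12 days after inoculation against solvent-treated controls.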

[5] = tested on: Pyrenophora teres; assay: Example F: in vivo preventive test on Pyrenophora teres (barley), acetone/tween/DMSO preparation; details: 500 ppm of active ingredient, barley, grading 14 days after contamination
Procedure, shortened: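 Barley ("Plaisant") grown at 22° C was sprayed at the 1-leaf stage (10 cm) with active ingredient in acetone/tween/DMSO/water, with solvent-only controls. After 24 h, leaves were inoculated with Pyrenophora teres spores (12 000 spores per mL) from 12-day cultures. % efficacy versus controls graded 14 days post-contamination.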

[6] = tested on: Uromyces appendiculatus; assay: Example Q: in vivo preventive test on Uromyces appendiculatus (bean rust); details: Uromyces appendiculatus on bean plants, 500 ppm of active ingredient, grading 11 days after contamination
Procedure, shortened: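 Saxa bean plants at 2-leaf stage, grown at 24° C., sprayed preventively with compound; 24 h later inoculated with U. appendiculatus spores (150 000 spores per mL). Percent efficacy graded 11 days after inoculation versus solvent-treated controls.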

[7] = tested on: Pyricularia oryzae; assay type: in vivo; details: Pyricularia oryzae on rice plants, preventive, 500 ppm of active ingredient, grading 6 days after contamination
[8] = tested on: Botrytis cinerea; assay: Example P: in vivo preventive test on Botrytis cinerea (grey mould), gherkin plants; details: 500 ppm of active ingredient, grading 4 to 5 days after contamination
Procedure, shortened: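 Gherkin plants at Z11 cotyledon stage sprayed preventively with active ingredient, then inoculated 24 h later with B. cinerea spores (50 000/mL) in PDB/fructose nutrient solution. Incubation at 17 °C and 90% RH; % efficacy graded 4–5 days post-inoculation against solvent-treated controls.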

[9] = log P by HPLC on reversed-phase column (C 18), EEC Directive 79831 Annex V.A8; assay type: physicochemical; details: for logP: HPLC reversed-phase C 18, 40° C., 0.1% aqueous formic acid and acetonitrile gradient, several values = mixture of two or more isomers
Procedure, shortened: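 Reversed-phase C18 HPLC at 40° C, 0.1% aqueous formic acid/acetonitrile linear gradient 10% to 90% acetonitrile, per EEC Directive 79831 Annex V.A8. log P obtained from retention time by linear interpolation between unbranched alkan-2-ones (C3-C16) of known log P.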

[10] = tested on: Blumeria graminis f.sp. hordei; assay: Example J: in vivo preventive test on Blumeria graminis (barley); details: 500 ppm of active ingredient, evaluated 7 days after inoculation
Procedure: (§1) In Vivo Preventive Test on Blumeria graminis (Barley) Solvent: 49 parts by weight of N,N-dimethylacetamide Emulsifier: 1 part by weight of alkylaryl polyglycol ether To produce a suitable preparation of active compound, 1 part by weight of active compound or active compound combination is mixed with the stated amounts of solvent and emulsifier, and the concentrate is diluted with water to the desired concentration. To test for preventive activity, young plants are sprayed with the preparation of active compound or active compound combination at the stated rate of application. After the spray coating has been dried, the plants are dusted with spores of Blumeria graminis f.sp. hordei.

[11] = tested on: Fusarium nivale (var. majus); assay: Example N: in vivo preventive test on Fusarium nivale (wheat); details: 500 ppm of active ingredient, evaluated 5 days after inoculation
Procedure: as §1, with “Fusarium nivale (Wheat)” for “Blumeria graminis (Barley)”, “slightly injured by using a sandblast and afterwards they are sprayed” for “dusted”, “a conidia suspension” for “spores”, “Fusarium nivale (var. majus). The plants are placed in the greenhouse under a translucent incubation cabinet at a temperature of approximately 10° C. and a relative atmospheric humidity of approximately 100%.” for “Blumeria graminis f.sp. hordei.”

[12] = tested on: Venturia inaequalis; assay: Example G: in vivo preventive test on Venturia inaequalis (apple scab); details: 100 ppm of active ingredient, evaluated 10 days after inoculation
Procedure: In Vivo Preventive Test on Venturia inaequalis (Apple Scab) Solvent: 24.5 parts by weight of acetone • 24.5 parts by weight of N,N-dimethylacetamide Emulsifier: 1 part by weight of alkylaryl polyglycol ether To produce a suitable preparation of active compound, 1 part by weight of active compound is mixed with the stated amounts of solvent and emulsifier, and the concentrate is diluted with water to the desired concentration. To test for preventive activity, young plants are sprayed with the preparation of active compound at the stated rate of application. After the spray coating has dried on, the plants are inoculated with an aqueous conidia suspension of the causal agent of apple scab (Venturia inaequalis) and then remain for 1 day in an incubation cabinet at approximately 20° C. and a relative atmospheric humidity of 100%. The plants are then placed in a greenhouse at approximately 21° C. and a relative atmospheric humidity of approximately 90%.

[13] = tested on: Pyrenophora teres; assay: Example E: in vivo preventive test on Pyrenophora teres (barley), DMF/emulsifier preparation; details: 500 ppm of active ingredient, evaluated 7-9 days after inoculation
Procedure, shortened: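 Young barley plants sprayed preventively with compound formulated in DMF/alkylaryl polyglycol ether emulsifier and diluted in water. One day later inoculated with aqueous Pyrenophora teres spore suspension, then held 48 h at 22 °C and 100% relative humidity.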

[14] = tested on: Alternaria solani; assay: Example C: in vivo preventive test on Alternaria solani (tomato); details: 500 ppm of active ingredient, evaluated 7 days after inoculation
Procedure, shortened: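 Young tomato plants sprayed preventively with compound formulated in DMF/emulsifier and diluted with water, then inoculated one day later with Alternaria solani spores. Plants were held one day at about 22° C, 100% humidity, then at about 20° C, 96% humidity.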

[15] = tested on: Botrytis cinerea; assay: Example O: in vivo protective test on Botrytis cinerea (beans); details: 100 ppm of active ingredient, lesion size 2 days after inoculation
Procedure: In Vivo Protective Test on Botrytis cinerea (Beans)
Solvent: 24.5 parts by weight of acetone • 24.5 parts by weight of N,N-dimethylacetamide
(§2) Emulsifier: 1 part by weight of alkylaryl polyglycol ether
To produce a suitable preparation of active compound, 1 part by weight of active compound is mixed with the stated amounts of solvent and emulsifier, and the concentrate is diluted with water to the desired concentration.
To test for preventive activity, young plants are sprayed with the preparation of active compound. After the spray coating has dried on, 2 small pieces of agar covered with growth of Botrytis cinerea are placed on each leaf. The inoculated plants are placed in a darkened chamber at 20° C. and a relative atmospheric humidity of 100%.
2 days after the inoculation, the size of the lesions on the leaves is evaluated. 0% means an efficacy which corresponds to that of the untreated control, while an efficacy of 100% means that no disease is observed.

[16] = tested on: Sphaerotheca fuliginea; assay: Example A: in vivo preventive test on Sphaerotheca fuliginea (cucumber); details: 500 ppm of active ingredient, evaluated 7 days after inoculation
Procedure: In Vivo Preventive Test on Sphaerotheca fuliginea (Cucumber) Solvent: 49 parts by weight of N,N-dimethylformamide Emulsifier: 1 part by weight of alkylarylpolyglycolether To produce a suitable preparation of active compound, 1 part by weight of active compound is mixed with the stated amounts of solvent and emulsifier, and the concentrate is diluted with water to the desired concentration. To test for preventive activity, young plants are sprayed with the preparation of active compound at the stated rate of application. One day after this treatment, the plants are inoculated with an aqueous spore suspension of Sphaerotheca fuliginea. Then the plants are placed in a greenhouse at approximately 23° C. and a relative atmospheric humidity of approximately 70%.

[17] = tested on: Puccinia triticina; assay: Example L: in vivo preventive test on Puccinia triticina (wheat); details: 500 ppm of active ingredient, evaluated 8 days after inoculation
Procedure: In Vivo Preventive Test on Puccinia triticina (Wheat)
Solvent: 49 parts by weight of N,N-dimethylacetamide
as §2
To produce a suitable preparation of active compound, 1 part by weight of active compound or active compound combination is mixed with the stated amounts of solvent and emulsifier, and the concentrate is diluted with water to the desired concentration.
To test for preventive activity, young plants are sprayed with the preparation of active compound or active compound combination at the stated rate of application.
After the spray coating has been dried, the plants are sprayed with a spore suspension of Puccinia triticina.
The plants remain for 48 hours in an incubation cabinet at approximately 20° C. and a relative atmospheric humidity of approximately 100%.
The plants are placed in the greenhouse at a temperature of approximately 20° C. and a relative atmospheric humidity of approximately 80%.
The test is evaluated 8 days after the inoculation. 0% means an efficacy which corresponds to that of the untreated control, while an efficacy of 100% means that no disease is observed.

[18] = tested on: Septoria tritici; assay: Example H: in vivo preventive test on Septoria tritici (wheat), N,N-dimethylacetamide/emulsifier preparation; details: 500 ppm of active ingredient, evaluated 21 days after inoculation
Procedure: as §1, with “Septoria tritici (Wheat)” for “Blumeria graminis (Barley)”, “sprayed” for “dusted”, “a spore suspension” for “spores”, “Septoria tritici. The plants remain for 48 hours in an incubation cabinet at approximately 20° C. and a relative atmospheric humidity of approximately 100% and afterwards for 60 hours at approximately 15° C. in a translucent incubation cabinet at a relative atmospheric humidity of approximately 100%.” for “Blumeria graminis f.sp. hordei.”

[19] = tested on: Leptosphaeria nodorum; assay: Example K: in vivo preventive test on Leptosphaeria nodorum (wheat); details: 500 ppm of active ingredient, evaluated 8 days after inoculation
Procedure: as §1, with “Leptosphaeria nodorum (Wheat)” for “Blumeria graminis (Barley)”, “sprayed” for “dusted”, “a spore suspension” for “spores”, “Leptosphaeria nodorum. The plants remain for 48 hours in an incubation cabinet at approximately 20° C. and a relative atmospheric humidity of approximately 100%.” for “Blumeria graminis f.sp. hordei.”

Row | Structure (SMILES) | Efficacy [1] [%] | Efficacy [2] [%] | Efficacy [3] [%] | Efficacy [4] [%] | Efficacy [5] [%] | Efficacy [6] [%] | Efficacy [7] [%] | Efficacy [8] [%] | logP [9] | Efficacy [10] [%] | Efficacy [11] [%] | Efficacy [12] [%] | Efficacy [13] [%] | Efficacy [14] [%] | Efficacy [15] [%] | Efficacy [16] [%] | Efficacy [17] [%] | Efficacy [18] [%] | Efficacy [19] [%] | chromatographic logP [9]
1 | Cn1nc(C(F)F)c(C(=O)N(C2CC2)C2CCCC3CCCCC32)c1F (mixture of isomers) [Example 31] | 100 | 96 | 100 | 100 | 97 | 100 | 80 | 100 |  |  |  |  |  |  |  |  |  |  |  | 
2 | Cn1nc(C(F)F)c(C(=O)NC2CCC3CCCC32)c1F (stereo not shown) [Example 2] |  |  | 70 | 98 |  | 98 | 71 | 70 | 2.86 |  |  |  |  |  |  |  |  |  |  | 
3 | CON(C(=O)c1cn(C)nc1C(F)F)C1CCC2CCCCC21 (stereo not shown) [Example 11] | 100 | 71 | 100 | 94 | 100 | 100 | 92 |  | 3.50 |  |  |  |  |  |  |  |  |  |  | 
4 | CC1CC(C)(C)C2CCCC(NC(=O)c3c(C(F)F)nn(C)c3F)C12 (stereo not shown) [Example 14] |  |  |  |  |  |  |  |  | 4.29 | 90 | 88 | 99 | 100 | 100 | 100 | 98 | 83 | 75 |  | 
5 | Cn1nc(C(F)F)c(C(=O)N(CC2(Cc3ccccc3)CC3CCC2C3)C2CC2)c1Cl (stereo not shown) [Example 68] | 98 | 71 |  | 75 |  |  | 80 |  | 5.06 |  |  |  |  |  |  |  |  |  |  | 
6 | CC(C1CC2CCC1C2)N(C(=O)c1cn(C)nc1C(F)F)C1CC1 (stereo not shown) [Example 94] |  |  |  |  |  |  |  |  | 3.52 | 89 | 100 | 100 | 100 | 100 | 100 | 100 |  | 100 | 80 | 
7 | Cc1nn(C)c(F)c1C(=O)N(C1CC1)C(C)C12CC3CC(CC(C3)C1)C2 (stereo not shown) [Example 103, N-[1-(adamantan-1-yl)ethyl]-N-cyclopropyl-5-fluoro-1,3-dimethyl-1H-pyrazole-4-carboxamide] |  |  |  |  |  |  |  |  |  |  |  | 100 | 100 | 100 | 99 | 96 |  | 100 |  | 4.3
8 | CC(N(C(=O)c1cn(C)nc1C(F)F)C1CC1)C12CC3CC(CC(C3)C1)C2 (stereo not shown) [Example 105] |  |  |  |  |  |  |  |  | 4.30 |  |  | 100 | 100 | 95 | 100 | 100 |  | 80 |  | 

— patent US9725414B2, “Fungicidal N-bicycloalkyl and N-tricycloalkyl pyrazole-4-(thio)carboxamide derivatives” (priority 2011, dated 2017)
